Where two headings read alike, the source gives them in different places.
What was measured:
Fagopyrum esculentum [1] = details: for Leaf dry weight / Stem dry weight / Stem lead concentration / Terrestrial dry weight / Terrestrial part lead accumulation amount / Terrestrial part lead concentration: soil B; for Leaf lead concentration: soil B (lead 13032 mg/kg), added one week before harvesting
Protocol: A lead concentration in a soil or a plant body was analyzed using ICP-AES (inductively coupled plasma-atomic emission spectrometry) regarding a sample obtained by adding nitric acid and degrading this with a microwave.
A cultivating experiment was conducted as follows: in which Fagopyrum esculentum and Brassica juncca were cultivated in a lead-containing soil filled in a Wagnel pot, a chelating agent was further added to the soil, and a difference in a lead accumulating amount depending on the cultivating condition was examined.
In addition, considering influence on plants and environment such as a salt concentration damage, 1, 5, 10 and 20 mmol kg^−1 soil of chemical reagents were adopted as an addition concentration, and 300 ml/pot (soil 3 kg) was provided as an addition amount.
1) Test plant: Fagopyrum esculentum, trade name (Milkyway), Brassica juncea
2) Test soil: Soil B (sampled from an old firing range site, soil lead concentration 13032 mg/kg), contrast sample (mountain sand in Gifu Prefecture of Japan, soil lead concentration 21 mg/kg)

Fagopyrum esculentum [2] = assay: Fagopyrum esculentum growth situation after addition of chelating agent
Protocol: 3) The soil B (3 kg) and the contrast section soil (4.3 kg) which had been passed through a sieve (2 mm) were mixed with urea (N: 69 mg/kg soil), calcium superphosphate (P: 75 mg/kg soil), potassium chloride (K: 72 mg/kg soil), and magnesia lime (Mg: 67 mg/kg soil), and sufficiently stirred. 4) The test soil was filled into a Wagnel pot (1/5000a), and a plant was seeded (3 pits/pot, 3 grains/pit). 5) Four to five days after germination, the plant was thinned out to 3 individuals/pot. 6) Cultivation in a gross chamber (Environmental Condition) Temperature: 25° C.×12 h (8:00-20:00), 20° C.×12 h (20:00-8:00) Humidity: 60% Illumination: light condition (8:00-20:00), dark condition (20:00-8:00) Illuminance: 98001×, 180μ mmol˜m^−2·s^−1 7) Aspersion was performed at 100 ml/pot every day. 8) During a test term, a position of a pot was changed four times. 9) Individuals which were about to fall were induced by a support post. 10) One week before harvesting, a chelating agent at each concentration was added to the soil B. An addition amount was 300 ml/pot, and the chelating agent was carefully added to a surface of the soil so that the chelating agent was not contacted with the plant. On the day before addition of the chelating agent and on the day of addition, aspersion was not performed. […] 12) Repeated cycles in all sections were 3 (3 pots/test section).

[3] = format: physicochemical
Protocol: <Experiment 1. Test of Comparing Lead Dissolving Out Ability of Chelating Agent>
In order to study a kind of a chelating agent to be added to a contaminated soil, the lead dissolving out abilities of 26 types of chelating agents (chelate reagents) were compared (FIG. 2).
2) Chelating agent: Each chelating agent of 100 mmol·dm^−3 and pH 5.8 was prepared.
3) Five grams of 1) the subject soil and 50 ml of 2) the chelating agent were put into to a 100 ml vessel, and shaken (200 times/min) at 20° C. for 6 hours. Repeated cycle was 3.
4) For comparison, a contrast section was prepared, in which desalted water was added instead of the chelating agent in the 3).
5) After shaking, the sample after filtration was centrifuged at 15000 rpm for 5 minutes, and the supernatant liquid was further centrifuged again under the same condition.
6) From the separated supernatant liquid, a lead concentration was measured with an inductively coupled high frequency plasma spectrometry (ICP) device.

[4] = chelating agent 10 mmol/kg soil
[5] = chelating agent 20 mmol/kg soil
[6] = per unit area, calculated, chelating agent 1 mmol/kg soil
[7] = per unit area, calculated, chelating agent 5 mmol/kg soil
[8] = per unit area, calculated, chelating agent 10 mmol/kg soil
[9] = per unit area, calculated, chelating agent 20 mmol/kg soil
[10] = four days after addition, 1 mmol/kg soil
[11] = four days after addition, 5 mmol/kg soil
[12] = four days after addition, 10 mmol/kg soil
[13] = four days after addition, 20 mmol/kg soil
[14] = chelating agent 100 mmol·dm^−3, pH 5.8, Soil A, shaken at 20° C. for 6 hours, FIG. 2

## O=C([O-])CC(O)(CC(=O)[O-])C(=O)[O-].[Na+].[Na+].[Na+] [Sodium citrate, sodium citrate]
Fagopyrum esculentum [1]; chelating agent 1 mmol/kg soil
  Leaf dry weight: 0.9090 g/plant
  Stem dry weight: 1.9892 g/plant
  Stem lead concentration: 1815 mg/kg
  Terrestrial dry weight: 2.8982 g/plant
  Terrestrial part lead accumulation amount: 0.0121 g/plant
  Terrestrial part lead concentration: 4169 mg/kg
  Leaf lead concentration: 9320 mg/kg
Fagopyrum esculentum [1]; chelating agent 5 mmol/kg soil
  Leaf dry weight: 1.0308 g/plant
  Stem dry weight: 1.6837 g/plant
  Stem lead concentration: 1671 mg/kg
  Terrestrial dry weight: 2.7145 g/plant
  Terrestrial part lead accumulation amount: 0.0101 g/plant
  Terrestrial part lead concentration: 3732 mg/kg
  Leaf lead concentration: 7099 mg/kg
Fagopyrum esculentum [1]; [4]
  Leaf dry weight: 0.7356 g/plant
  Stem dry weight: 1.7669 g/plant
  Stem lead concentration: 1524 mg/kg
  Terrestrial dry weight: 2.5025 g/plant
  Terrestrial part lead accumulation amount: 0.0080 g/plant
  Terrestrial part lead concentration: 3191 mg/kg
  Leaf lead concentration: 7195 mg/kg
Fagopyrum esculentum [1]; [5]
  Leaf dry weight: 0.8797 g/plant
  Stem dry weight: 1.9099 g/plant
  Stem lead concentration: 2286 mg/kg
  Terrestrial dry weight: 2.7896 g/plant
  Terrestrial part lead accumulation amount: 0.0134 g/plant
  Terrestrial part lead concentration: 4806 mg/kg
  Leaf lead concentration: 10270 mg/kg
Fagopyrum esculentum [1]; [6]
  Terrestrial part lead accumulation amount: 1.82 g/m^2
Fagopyrum esculentum [1]; [7]
  Terrestrial part lead accumulation amount: 1.52 g/m^2
Fagopyrum esculentum [1]; [8]
  Terrestrial part lead accumulation amount: 1.20 g/m^2
Fagopyrum esculentum [1]; [9]
  Terrestrial part lead accumulation amount: 2.01 g/m^2
Fagopyrum esculentum [2]; [10]
  Discoloration of leaf (number of individuals for which symptom was observed): 5
Fagopyrum esculentum [2]; [11]
  Discoloration of leaf (number of individuals for which symptom was observed): 2
Fagopyrum esculentum [2]; [12]
  Discoloration of leaf (number of individuals for which symptom was observed): 4
  Leaf drop (number of individuals for which symptom was observed): 2
  Wilting of leaf (number of individuals for which symptom was observed): 4
Fagopyrum esculentum [2]; [13]
  Discoloration of leaf (number of individuals for which symptom was observed): 5
  Wilting of leaf (number of individuals for which symptom was observed): 6
[3]; [14]
  lead dissolving out ability: not so much higher than the aforementioned biodegradable chelating agents
[3]; pH 5.8
  lead dissolving out ability: high lead dissolving out ability

## disodium ethylenediamine tetraacetate [EDTA · 2Na, reference compound]
Fagopyrum esculentum [1]; 10, 20 mmol/kg soil, contrast section 2043 mg/kg
  addition effect on lead concentration in stems: high addition effect
Fagopyrum esculentum [1]; 10, 20 mmol/kg soil, contrast section 7971 mg/kg
  addition effect on lead concentration in leaves: high addition effect
Fagopyrum esculentum [1]; chelating agent 1 mmol/kg soil
  Leaf dry weight: 0.9799 g/plant
  Stem dry weight: 1.7240 g/plant
  Stem lead concentration: 1791 mg/kg
  Terrestrial dry weight: 2.7039 g/plant
  Terrestrial part lead accumulation amount: 0.0106 g/plant
  Terrestrial part lead concentration: 3926 mg/kg
  Leaf lead concentration: 7683 mg/kg
Fagopyrum esculentum [1]; chelating agent 5 mmol/kg soil
  Leaf dry weight: 1.0307 g/plant
  Stem dry weight: 2.0750 g/plant
  Stem lead concentration: 2288 mg/kg
  Terrestrial dry weight: 3.1057 g/plant
  Terrestrial part lead accumulation amount: 0.0157 g/plant
  Terrestrial part lead concentration: 5045 mg/kg
  Leaf lead concentration: 10595 mg/kg
Fagopyrum esculentum [1]; [4]
  Leaf dry weight: 0.9617 g/plant
  Stem dry weight: 1.8899 g/plant
  Stem lead concentration: 3376 mg/kg
  Terrestrial dry weight: 2.8516 g/plant
  Terrestrial part lead accumulation amount: 0.0244 g/plant
  Terrestrial part lead concentration: 8564 mg/kg
  Leaf lead concentration: 18758 mg/kg
Fagopyrum esculentum [1]; [5]
  Leaf dry weight: 0.6389 g/plant
  Stem dry weight: 1.4969 g/plant
  Stem lead concentration: 8947 mg/kg
  Terrestrial dry weight: 2.1358 g/plant
  Terrestrial part lead accumulation amount: 0.0328 g/plant
  Terrestrial part lead concentration: 15335 mg/kg
  Leaf lead concentration: 30303 mg/kg
Fagopyrum esculentum [1]; [6]
  Terrestrial part lead accumulation amount: 1.59 g/m^2
Fagopyrum esculentum [1]; [7]
  Terrestrial part lead accumulation amount: 2.36 g/m^2
Fagopyrum esculentum [1]; [8]
  Terrestrial part lead accumulation amount: 3.66 g/m^2
Fagopyrum esculentum [1]; [9]
  Terrestrial part lead accumulation amount: 4.92 g/m^2
Fagopyrum esculentum [2]; [10]
  Discoloration of leaf (number of individuals for which symptom was observed): 3
Fagopyrum esculentum [2]; [11]
  Discoloration of leaf (number of individuals for which symptom was observed): 4
  Leaf drop (number of individuals for which symptom was observed): 1
  Wilting of leaf (number of individuals for which symptom was observed): 1
Fagopyrum esculentum [2]; [12]
  Discoloration of leaf (number of individuals for which symptom was observed): 6
  Wilting of leaf (number of individuals for which symptom was observed): 2
Fagopyrum esculentum [2]; [13]
  Discoloration of flower (number of individuals for which symptom was observed): 9
  Discoloration of leaf (number of individuals for which symptom was observed): 9
  Leaf drop (number of individuals for which symptom was observed): 2
  Wilting of leaf (number of individuals for which symptom was observed): 9
  yellow leaves, spotting and discoloration of leaves, and discoloration of a flower: confirmed in all individuals
Fagopyrum esculentum [2]; two days after addition, 20 mmol/kg soil
  discoloration of leaves: discoloration of leaves was observed
[3]; [14]
  lead dissolving out ability: high lead dissolving out ability
